Reference: publication PMC9818021, “Targets, Mechanisms and Cytotoxicity of Half-Sandwich Ir(III) Complexes Are Modulated by Structural Modifications on the Benzazole Ancillary Ligand” (Cancers, 2022)

Columns and labels:
plasmid DNA (pUC18) = test: Agarose gel electrophoresis of plasmid DNA; type: binding, Escherichia coli; conditions: pUC18 20 µM, overnight 37 °C
Protocol: Agarose Gel electrophoresis of plasmid DNA Overnight cultures of the strain DH5α of Escherichia coli were isolated with the Quiagen DNA purification kit. Then, 20 µM (in base pairs) of plasmid DNA (pUC18) was incubated with different concentrations of the synthesized iridium complexes overnight at 37 °C. Afterwards, 2 μL of loading buffer were added to 10 μL of the incubated samples and loaded onto a 1% agarose gel. Electrophoresis was run in TAE 1× at 6.5 V/cm during 2.5 h. Then, the agarose gel was stained with ethidium bromide 1 μg/mL and visualized with a Gel Doc XR+ Imaging System (Bio-Rad, Hercules, CA, USA).

A549 cells [1] = test: MTT viability with NAC pre-incubation; type: cell-based, human; conditions: NAC 10 mM 2 h pre-incubation, then 24 h
Protocol: Cytotoxicity. MTT Assay and IC50 estimation. The cytotoxicity of 1[C,NH-Cl], 2[C,NMe-Cl], 3[N,NH-Cl]Cl, 4[N,NMe-Cl]Cl, 5[CNH2,NH-Cl]Cl, 6[CNH2,S-Cl]Cl, 7[CO,NH-Cl] and 8[CO,S-Cl] in A2780, A2780cis, SW480 and A549 carcinoma cells was evaluated by the MTT colorimetric assay. Cells were seeded in 96-well plates at 5000 cells per well and incubated at 37 °C, 5% CO2. After 24 h, the medium was removed and replaced with fresh medium with different concentrations of the compounds under study, and they were incubated for 48 h. Final DMSO concentration was kept below 0.7% in wells. For a negative control, one sequence of cells was left untreated and for vehicle control, cells treated with DMSO were included. For cell viability experiments preincubating with NAC (N-Acetyl-L-Cysteine), the cells were pre-treated with NAC, 10 mM for 2 h before the incubation with complex 1[C,NH-Cl] for 24 h. Then, the medium was removed from the wells, and 100 µL MTT (5 mg/mL) was added. […] Cell growth inhibition was detected by measuring the absorbance of each well at 595 nm using a BioTek Cytation5 microplate reader. […] The percentage of survival cells was calculated using absorbance measurements compared with control and the IC50 estimation using Graph Pad Prism version 6.01.

BALB/c mice = test: Biodistribution (ICP-MS of organs); type: in vivo, mouse; conditions: 4 h after i.v. injection
Protocol: Biodistribution studies: BALB/c mice were injected via the tail vein with 100 µL of 1[C,NH] dissolved in PBS. Then, 4 h after the injection, the animals (n = 3) were sacrificed, and the following organs were removed: kidney, spleen, liver, heart, lung, pancreas, intestine, ovary and stomach. They were kept at −80 °C until their analysis at the Cactus-Lugo Instrumental Analysis Unit. Solutions were diluted to a final volume of 10 mL MilliQ water and measured on an Agilent 7700x-ICP-MS.

A549 cells [2] = test: GSH/GSSG-Glo assay; type: cell-based, human; conditions: 1 h
Protocol: (§1) DNA damage was measured using EpiQuik 8-OHdG DNA Damage Quantification Direct Kit (colorimetric) (Fischer, Waltham, MA, USA, P600396); The mitochondrial cytochrome C release was evaluated using the “Millipore’s FlowCellect Cytochrome C Kit (Millipore, FCCH100110)”. Lactate dehydrogenase activity release was measured in the culture medium using Cytotoxicity Detection Kit (Roche Diagnostic, Barcelona, Spain, 11 644 793 001). Protein synthesis was determined using Click-iT Plus O-propargyl-puromycin (OPP) Protein Synthesis Assay Kit (Invitrogen™, Waltham, MA, USA). Measurement of GSH/GSSG was determined with GSH/GSSG-Glo Assay (Promega, V6611). Measurements of OCR and ECAR with Seahorse XFp (Agilent Technologies) were determined using the XFp Cell Mito Stress Test Kit (103010-100) and XFp Glycolysis Stress Test Kit (103017-100). ATP measurement was determined with Cell Titer-Glo Luminescent Cell Viability Assay (Promega, Madison, WI, USA, G7570). Determination of DNA damage using phosphorylated H2AX measurement were performed as previously described. Cardiolipin oxidation using the fluorophore Nonyl Acridine Orange (NAO, Thermo Scientific, A1372) was performed as described. Cell viability was determined by Hoechst inclusion and Propidium iodide (PI) exclusion by standard protocols. TEM analysis were performed as described. […]

A549 cells [3] = test: DNA damage by phosphorylated H2AX, flow cytometry; type: cell-based, human; conditions: 4 h
Protocol: DNA damage was measured using EpiQuik 8-OHdG DNA Damage Quantification Direct Kit (colorimetric) (Fischer, Waltham, MA, USA, P600396); The mitochondrial cytochrome C release was evaluated using the “Millipore’s FlowCellect Cytochrome C Kit (Millipore, FCCH100110)”. Lactate dehydrogenase activity release was measured in the culture medium using Cytotoxicity Detection Kit (Roche Diagnostic, Barcelona, Spain, 11 644 793 001). Protein synthesis was determined using Click-iT Plus O-propargyl-puromycin (OPP) Protein Synthesis Assay Kit (Invitrogen™, Waltham, MA, USA). Measurement of GSH/GSSG was determined with GSH/GSSG-Glo Assay (Promega, V6611). Measurements of OCR and ECAR with Seahorse XFp (Agilent Technologies) were determined using the XFp Cell Mito Stress Test Kit (103010-100) and XFp Glycolysis Stress Test Kit (103017-100). ATP measurement was determined with Cell Titer-Glo Luminescent Cell Viability Assay (Promega, Madison, WI, USA, G7570). Determination of DNA damage using phosphorylated H2AX measurement were performed as previously described. Cardiolipin oxidation using the fluorophore Nonyl Acridine Orange (NAO, Thermo Scientific, A1372) was performed as described. Cell viability was determined by Hoechst inclusion and Propidium iodide (PI) exclusion by standard protocols. TEM analysis were performed as described. Cell cycle analysis by flow cytometry and microarrays analysis were performed as described. Arrays data have been deposited in the ArrayExpress database at EMBL-EBI (www.ebi.ac.uk/arrayexpress) under accession number E-MTAB-860 (10 November 2022)

A549 cells [4] = test: Lactate dehydrogenase release; type: cell-based, human; conditions: 16 µM, 1% FBS
Protocol: as §1

A549 cells [5] = test: Protein synthesis (Click-iT OPP); type: cell-based, human; conditions: 16 µM, 6 h
Protocol: as §1

Structure (SMILES): Cc1c(C)c(C)[c-](C)c1C.[Cl][Ir]1[c]2ccccc2-c2[nH]c3ccccc3[n+]21 [1[C,NH], [(η^5-Cp*)IrCl(κ^2-N,C-pbim)]]
- Migration pattern of plasmid DNA (plasmid DNA (pUC18)): unable to interact with DNA
- Rescue of cytotoxicity by NAC (A549 cells [1]): partial rescue
- Tissues with the highest accumulation (BALB/c mice): liver, kidneys and lungs
- GSH/GSSG ratio (A549 cells [2]): decreased the GSH/GSSG ratio
- Percentage of A549 positive cells to damage on DNA (A549 cells [3]; 8 μM): 2%
- Percentage of A549 positive cells to damage on DNA (A549 cells [3]; 16 μM): 30%
- Percentage of A549 positive cells to damage on DNA (A549 cells [3]; 24 μM): 87%
- LDH release to the medium (A549 cells [4]): only began after 8 h of incubation
- Inhibition of total protein synthesis (A549 cells [5]): around 60%

Structure (SMILES): Cc1c(C)c(C)[c-](C)c1C.Cn1c2[n+](c3ccccc31)[Ir]([Cl])[c]1ccccc1-2 [2[C,NMe], [(η^5-Cp*)IrCl(κ^2-N,C-NMepbim)]]
- Migration pattern of plasmid DNA (plasmid DNA (pUC18)): unable to interact with DNA
